The source of these data is the OligoGym collection.

Targets include INPPL1; BIRC2; PTEN.
Common to all, as to settings: ASO

These antisense oligonucleotides have a phosphorothioate backbone; sugars and methylation of C are not fully specified.
Note: test concentration or dose not given here.

In the case of GAGATACTGCCCTGACCC, the remaining target (mRNA or protein) (fraction of control) with INPPL1 was at least 1.

GAGTAAGAACCACTGAAC: the remaining target (mRNA or protein) (fraction of control) in the data set with BIRC2 was at least 1.

For GCACCAGCCGCCCACCCT, the remaining target (mRNA or protein) (fraction of control) with INPPL1 turned out to be 0.3.

In the case of GCACCCCAGCCTCCTCCA, the remaining target (mRNA or protein) (fraction of control) in the data set with INPPL1 worked out at 0.79.

As to GGAAGAACTCTACTTTGA, the remaining target (mRNA or protein) (fraction of control) with PTEN was 0.62.

In the data set with INPPL1, GGAGATGAACTGGGAGGT registered a remaining target (mRNA or protein) (fraction of control) of 0.48.

In the case of GGATAAATATAGGTCAAG, the remaining target (mRNA or protein) (fraction of control) with PTEN is at least 1.

GGATGCGGTCGTGCGTGA gave a remaining target (mRNA or protein) (fraction of control) with INPPL1 of 0.86.

GGGAGGTGCCGCCGCCGC gave a remaining target (mRNA or protein) (fraction of control) in the data set with PTEN of 0.58.

With GGTAACCTAAGTGCTATT, the remaining target (mRNA or protein) (fraction of control) in the data set with BIRC2 was at least 1.

On to GGTCCTTCTCCTTCTCAA, for which, in the data set with INPPL1, the remaining target (mRNA or protein) (fraction of control) is 0.52.

In turn, GGTTGGCTTTGTCTTTAT showed a remaining target (mRNA or protein) (fraction of control) with PTEN of 0.23.

On to GTGCCTATGAAGACTGAG, for which the remaining target (mRNA or protein) (fraction of control) with INPPL1 worked out at 0.4.

GTGGCAGATGGGACAGGG showed a remaining target (mRNA or protein) (fraction of control) in the data set with INPPL1 of at least 1.

GTGTCAAAACCCTGTGGA came in with a remaining target (mRNA or protein) (fraction of control) with PTEN of 0.28.

With TAAATAGCTGGAGATGGT, in the data set with PTEN, the remaining target (mRNA or protein) (fraction of control) worked out at 0.45.

As to TACCTTGAATCTCATCAA, the remaining target (mRNA or protein) (fraction of control) with BIRC2 was at least 1.

The sequence TAGAATTAAGAGGGTTTG registered a remaining target (mRNA or protein) (fraction of control) with BIRC2 of at least 1.

As for TAGAGTTCACAGGAAAAG, the remaining target (mRNA or protein) (fraction of control) with BIRC2 is at least 1.

TAGCAAAACCTTTCGGAA came in with a remaining target (mRNA or protein) (fraction of control) in the data set with PTEN of 0.49.

Sequence TATATGCAGGCTTCTTTC returned a remaining target (mRNA or protein) (fraction of control) in the data set with BIRC2 of 0.77.

For TATTTTCATGGTGTTTTA, the remaining target (mRNA or protein) (fraction of control) in the data set with PTEN stood at 0.24.

In the data set with PTEN, TCAATATTGTTCCTGTAT came in with a remaining target (mRNA or protein) (fraction of control) of at least 1.

In the data set with BIRC2, TCAGGTAGGATGAGTATC returned a remaining target (mRNA or protein) (fraction of control) of 0.89.

Take TCCAAGTCCTCCTCGGTG: in the data set with INPPL1, the remaining target (mRNA or protein) (fraction of control) was at least 1.

As to TCCAGGCAGGTAGAGTAG, the remaining target (mRNA or protein) (fraction of control) in the data set with INPPL1 was at least 1.

Take TCCCCACTGCCCACTTCC: the remaining target (mRNA or protein) (fraction of control) in the data set with INPPL1 is at least 1.

In the data set with INPPL1, TCCCTCCCCAGACCCACA yielded a remaining target (mRNA or protein) (fraction of control) of at least 1.

TCCGTCCTGAGCCTAAAA came in with a remaining target (mRNA or protein) (fraction of control) with INPPL1 of 0.7.

As to TCGCTTGTAAAGGTATCT, in the data set with BIRC2, the remaining target (mRNA or protein) (fraction of control) is at least 1.

In the data set with PTEN, TCTCCTCAGCAGCCAGAG registered a remaining target (mRNA or protein) (fraction of control) of 0.66.

TCTGGATCAGAGTCAGTG came in with a remaining target (mRNA or protein) (fraction of control) with PTEN of 0.56.

Sequence TCTGTGACTTCCCAATCT returned a remaining target (mRNA or protein) (fraction of control) in the data set with INPPL1 of 0.93.

For TCTTCTGCAGGATGGAAA, in the data set with PTEN, the remaining target (mRNA or protein) (fraction of control) was at least 1.

As for TGAAGAATGTATTTACCC, in the data set with PTEN, the remaining target (mRNA or protein) (fraction of control) came to 0.56.

On to TGCCCCACCCCAACCAAC, for which the remaining target (mRNA or protein) (fraction of control) in the data set with INPPL1 was at least 1.

Consider TGCCTTTTATTTATATTT, for which, in the data set with BIRC2, the remaining target (mRNA or protein) (fraction of control) is at least 1.

In the data set with INPPL1, TGCGGCTGGCTGTCTTCA came in with a remaining target (mRNA or protein) (fraction of control) of 0.85.

Take TGCTAACGATCTCTTTGA: in the data set with PTEN, the remaining target (mRNA or protein) (fraction of control) was found to be 0.57.

In the data set with PTEN, TGCTAGCCTCTGGATTTG returned a remaining target (mRNA or protein) (fraction of control) of 0.26.

For the sequence TGCTCCTGCCTCATCCTT, the remaining target (mRNA or protein) (fraction of control) with INPPL1 turned out to be 0.54.

Turning to TGGCTGCAGCTTCCGAGA, in the data set with PTEN, the remaining target (mRNA or protein) (fraction of control) was found to be 0.27.

In the data set with BIRC2, TGGTAGGTAAGAAATCTG gave a remaining target (mRNA or protein) (fraction of control) of at least 1.

With TGTCTCTGGTCCTTACTT, the remaining target (mRNA or protein) (fraction of control) with PTEN turned out to be 0.66.

Consider TGTGAAACAACAGTGCCA, for which the remaining target (mRNA or protein) (fraction of control) with PTEN is 0.25.

As for TGTGCCTCCAGACTCCTC, the remaining target (mRNA or protein) (fraction of control) with INPPL1 amounted to 0.59.

In the case of TGTTCCTATAACTGGTAA, the remaining target (mRNA or protein) (fraction of control) with PTEN came to 0.42.

TGTTTCAAGCCCATTCTT returned a remaining target (mRNA or protein) (fraction of control) with PTEN of 0.35.

For TTAAATTTGGCGGTGTCA, the remaining target (mRNA or protein) (fraction of control) in the data set with PTEN was at least 1.

For the sequence TTAAGGACTATTCAGCTA, in the data set with BIRC2, the remaining target (mRNA or protein) (fraction of control) was at least 1.

In the data set with BIRC2, TTAGATGGCTTCAAGTGT showed a remaining target (mRNA or protein) (fraction of control) of 0.9.

In turn, TTAGTTAGCCATAAAATT gave a remaining target (mRNA or protein) (fraction of control) in the data set with BIRC2 of at least 1.

Consider TTCCCAACACCTCAAGCC, for which the remaining target (mRNA or protein) (fraction of control) with BIRC2 worked out at 0.45.

Regarding TTCCCAGTTACTGAGCTT, the remaining target (mRNA or protein) (fraction of control) in the data set with BIRC2 amounted to 0.22.

TTCCTGGTTTCCAGTTCT displayed a remaining target (mRNA or protein) (fraction of control) with BIRC2 of 0.54.

On to TTGCGGCTCCCTGACCTG, for which the remaining target (mRNA or protein) (fraction of control) with INPPL1 is at least 1.

Turning to TTGGCTTAAAGTTCAAAA, the remaining target (mRNA or protein) (fraction of control) with BIRC2 was at least 1.

TTTCTCATTGGAGACGTA: the remaining target (mRNA or protein) (fraction of control) with BIRC2 turned out to be 0.68.

Take TTTCTTCACATGAACTAA: in the data set with BIRC2, the remaining target (mRNA or protein) (fraction of control) is at least 1.

In turn, TTTTACTTTGAACTGTTT showed a remaining target (mRNA or protein) (fraction of control) with BIRC2 of at least 1.
